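How tested: cells in 96-well plates exposed to compound for 48 hours at five concentrations. TGI is the concentration that stops growth completely.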

Test systems include COLO 205 colon; HOP-92 NSCLC; MALME-3M melanoma; NCI-H23 lung; NCI-H460 lung; OVCAR-4 ovarian; SF-295 CNS; TK-10 renal; UACC-257 melanoma; OVCAR-3 ovarian; CCRF-CEM leukemia.
Holding throughout (assay): NCI anticancer screen, dose series, 48 h

`COc1ccc2[nH]c3c(c2c1)CC(=O)N1CCCC(CC3O)C1` (configuration not stated): the TGI in the assay with COLO 205 colon, in the assay on HOP-92 NSCLC, in the assay with MALME-3M melanoma, in the assay on NCI-H23 lung, in the assay on NCI-H460 lung and with OVCAR-4 ovarian was > 100 µM throughout. Further, the TGI in the assay with SF-295 CNS, in the assay on TK-10 renal and in the assay with UACC-257 melanoma was > 100 µM in each case.

For the compound `CCCCCCCCCCCCCCCCCCNc1ccn(C2OC(CO)C(OP(=O)(O)OCC(O)COP(=O)(O)OCC3OC(n4cc(F)c(NCCCCCCCCCCCCCCCCCC)nc4=O)CC3O)C2O)c(=O)n1` (configuration not stated), the TGI with COLO 205 colon, in the assay on HOP-92 NSCLC, with MALME-3M melanoma, with NCI-H23 lung, with NCI-H460 lung and in the assay with OVCAR-3 ovarian was > 50 µM throughout. Further, the TGI in the assay on OVCAR-4 ovarian, in the assay with SF-295 CNS, with TK-10 renal and with UACC-257 melanoma was > 50 µM throughout.

Turning to `CC(C)(C)OC(=O)N1C(OP(=O)(Oc2ccccc2)Oc2ccccc2)=CSc2ccccc21`, the TGI in the assay with COLO 205 colon was 49.6 µM; with HOP-92 NSCLC, 80.9 µM; with MALME-3M melanoma it was 88.1 µM; in the assay with NCI-H23 lung, > 100 µM; with NCI-H460 lung it was > 100 µM; in the assay on OVCAR-3 ovarian, > 100 µM. The TGI in the assay with OVCAR-4 ovarian, in the assay with SF-295 CNS, in the assay with TK-10 renal and in the assay with UACC-257 melanoma was > 100 µM in each case.

Take `COc1cc(/C=N/c2nc3cc4sc(/N=C/c5cc(OC)c(OC)c(OC)c5)nc4cc3s2)cc(OC)c1OC`: the TGI in the assay on COLO 205 colon, with HOP-92 NSCLC, with MALME-3M melanoma, with NCI-H23 lung, in the assay with NCI-H460 lung and in the assay on OVCAR-3 ovarian was > 100 µM throughout. For the same compound, the TGI in the assay on OVCAR-4 ovarian, with SF-295 CNS, with TK-10 renal and in the assay on UACC-257 melanoma was > 100 µM in each case.

Take `CC1(CO)COS(=O)OC1` (configuration not stated): the TGI in the assay on CCRF-CEM leukemia, in the assay on COLO 205 colon, in the assay with HOP-92 NSCLC, with NCI-H23 lung, in the assay with NCI-H460 lung and in the assay on OVCAR-3 ovarian was > 100 µM throughout. Besides, the TGI in the assay on OVCAR-4 ovarian, in the assay with SF-295 CNS, with TK-10 renal and in the assay on UACC-257 melanoma was > 100 µM in each case.

As for `CC(=O)O[C@H]1CC[C@H]2[C@@H]3CCC4=CC(=O)C=C[C@]4(O)[C@H]3CC[C@]12C`, the TGI in the assay with CCRF-CEM leukemia is 46.5 µM; with COLO 205 colon it was > 55.6 µM; in the assay on HOP-92 NSCLC, 92.3 µM; with NCI-H23 lung it was > 62.4 µM; in the assay with NCI-H460 lung, > 100 µM; in the assay on OVCAR-3 ovarian, > 100 µM. For the same compound, the TGI in the assay on OVCAR-4 ovarian was > 100 µM; with SF-295 CNS, > 100 µM; with TK-10 renal it was > 100 µM; in the assay on UACC-257 melanoma it was > 81.9 µM.

As to `O=C(Oc1c(Cl)cc(C2(c3cc(Cl)c(OC(=O)c4ccccc4)c(Cl)c3)CCCCC2)cc1Cl)c1ccccc1`, the TGI with CCRF-CEM leukemia was 30.1 µM; in the assay on COLO 205 colon, 19.6 µM; in the assay on HOP-92 NSCLC it was 21.8 µM; in the assay with NCI-H23 lung, 23.4 µM; in the assay on NCI-H460 lung, 26.1 µM; in the assay with OVCAR-3 ovarian, 27.9 µM. Also, the TGI amounted to 32.3 µM in the assay with OVCAR-4 ovarian, 28.6 µM in the assay on SF-295 CNS, 30.4 µM in the assay with TK-10 renal and 26.1 µM with UACC-257 melanoma.

For `CN(Cc1cn(O)c2nc(=N)nc(N)c-2n1)c1ccc(C(=O)NC23CC4CC(CC(C4)C2)C3)cc1`, the TGI in the assay on CCRF-CEM leukemia, in the assay with COLO 205 colon, in the assay with MALME-3M melanoma, with NCI-H23 lung, in the assay on NCI-H460 lung and in the assay on OVCAR-3 ovarian was > 100 µM in each case. The TGI with SF-295 CNS, with TK-10 renal and in the assay on UACC-257 melanoma was > 100 µM throughout.

For `COc1ccc(-c2nc3c(nc2-c2ccc(OC)cc2)C(N)=NS(=O)(=O)N3)cc1`, the TGI in the assay with CCRF-CEM leukemia, with COLO 205 colon, in the assay on MALME-3M melanoma, in the assay on NCI-H23 lung, in the assay on OVCAR-3 ovarian and in the assay on SF-295 CNS was > 100 µM throughout. The TGI in the assay on TK-10 renal and in the assay with UACC-257 melanoma was > 100 µM in each case.

As to `Nc1[nH]c(=S)nc2nc3c(c(-c4ccccc4)c12)CCCC3`, the TGI with COLO 205 colon, with MALME-3M melanoma, in the assay with NCI-H23 lung, in the assay on NCI-H460 lung, in the assay with OVCAR-3 ovarian and with OVCAR-4 ovarian was > 100 µM in each case. In addition, the TGI in the assay with SF-295 CNS and with TK-10 renal was > 100 µM in each case.

For `CCCCN1C(=O)c2c(Br)sc(Br)c2C1=O`, the TGI in the assay with CCRF-CEM leukemia is > 100 µM; with COLO 205 colon, 39.1 µM; in the assay with MALME-3M melanoma it was > 100 µM; in the assay with NCI-H23 lung, > 100 µM; in the assay on NCI-H460 lung, > 100 µM; in the assay with OVCAR-4 ovarian, 91.1 µM. Besides, the TGI in the assay on SF-295 CNS, in the assay with TK-10 renal and in the assay on UACC-257 melanoma was > 100 µM in each case.

`O=C(NCCC1CN(C(=O)OCc2ccccc2)c2ccccc21)OCc1ccccc1` (configuration not stated): the TGI in the assay with COLO 205 colon, in the assay on HOP-92 NSCLC, in the assay on MALME-3M melanoma, in the assay with NCI-H23 lung, in the assay on NCI-H460 lung and in the assay with OVCAR-3 ovarian was > 100 µM throughout. Also, the TGI with OVCAR-4 ovarian, in the assay with SF-295 CNS, in the assay on TK-10 renal and in the assay on UACC-257 melanoma was > 100 µM throughout.

As to `CCc1n[nH]c(=O)n1/N=C(\C)c1ccc([N+](=O)[O-])cc1`, the TGI in the assay with CCRF-CEM leukemia, in the assay with COLO 205 colon, with HOP-92 NSCLC, in the assay on NCI-H23 lung, with NCI-H460 lung and in the assay on OVCAR-3 ovarian was > 100 µM throughout. Further, the TGI in the assay on OVCAR-4 ovarian, in the assay with SF-295 CNS, with TK-10 renal and in the assay with UACC-257 melanoma was > 100 µM each time.

For the compound `CN(C)CCNC(=O)c1cc(Cl)cc2cc3ccccc3nc12`, the TGI was 3.28 µM in the assay on CCRF-CEM leukemia; 1.66 µM in the assay on COLO 205 colon; 14.9 µM with MALME-3M melanoma; 3.42 µM in the assay with NCI-H23 lung; 2.41 µM in the assay with NCI-H460 lung; 16 µM in the assay on OVCAR-3 ovarian. Moreover, the TGI with OVCAR-4 ovarian stood at 8.04 µM; in the assay with SF-295 CNS it was 2.85 µM; with UACC-257 melanoma, 3.66 µM.

These data come from PubChem BioAssay (NCI).
